Here are results for 39 compounds from ChEMBL document CHEMBL4184177, “Synthesis and bioevaluation study of novel N-methylpicolinamide and thienopyrimidine derivatives as selectivity c-Met kinase inhibitors” (Bioorg Med Chem, 2018).

One test has as its system A549. Kind of test: Cytotoxicity against human A549 cells after 72 hrs by MTT assay. The note with it: A549, 72 h. On the technique in general: Formazan colour is commonly taken as a measure of viable cells.
In another test the test system is MCF7. Kind of test: cells. As to conditions: Homo sapiens, MCF7, 72 h.
For another test, the system named is HepG2. Kind of test: cells. The note with it: Homo sapiens, HepG2, 72 h.
The target in test [1] is Hepatocyte growth factor receptor (Homo sapiens, UniProt P08581). Kind of test: Inhibition of c-Met (unknown origin) using FAM-labeled peptide substrate after 10 mins by mobility shift assay.
Hepatocyte growth factor receptor, sequence (P08581 whole entry): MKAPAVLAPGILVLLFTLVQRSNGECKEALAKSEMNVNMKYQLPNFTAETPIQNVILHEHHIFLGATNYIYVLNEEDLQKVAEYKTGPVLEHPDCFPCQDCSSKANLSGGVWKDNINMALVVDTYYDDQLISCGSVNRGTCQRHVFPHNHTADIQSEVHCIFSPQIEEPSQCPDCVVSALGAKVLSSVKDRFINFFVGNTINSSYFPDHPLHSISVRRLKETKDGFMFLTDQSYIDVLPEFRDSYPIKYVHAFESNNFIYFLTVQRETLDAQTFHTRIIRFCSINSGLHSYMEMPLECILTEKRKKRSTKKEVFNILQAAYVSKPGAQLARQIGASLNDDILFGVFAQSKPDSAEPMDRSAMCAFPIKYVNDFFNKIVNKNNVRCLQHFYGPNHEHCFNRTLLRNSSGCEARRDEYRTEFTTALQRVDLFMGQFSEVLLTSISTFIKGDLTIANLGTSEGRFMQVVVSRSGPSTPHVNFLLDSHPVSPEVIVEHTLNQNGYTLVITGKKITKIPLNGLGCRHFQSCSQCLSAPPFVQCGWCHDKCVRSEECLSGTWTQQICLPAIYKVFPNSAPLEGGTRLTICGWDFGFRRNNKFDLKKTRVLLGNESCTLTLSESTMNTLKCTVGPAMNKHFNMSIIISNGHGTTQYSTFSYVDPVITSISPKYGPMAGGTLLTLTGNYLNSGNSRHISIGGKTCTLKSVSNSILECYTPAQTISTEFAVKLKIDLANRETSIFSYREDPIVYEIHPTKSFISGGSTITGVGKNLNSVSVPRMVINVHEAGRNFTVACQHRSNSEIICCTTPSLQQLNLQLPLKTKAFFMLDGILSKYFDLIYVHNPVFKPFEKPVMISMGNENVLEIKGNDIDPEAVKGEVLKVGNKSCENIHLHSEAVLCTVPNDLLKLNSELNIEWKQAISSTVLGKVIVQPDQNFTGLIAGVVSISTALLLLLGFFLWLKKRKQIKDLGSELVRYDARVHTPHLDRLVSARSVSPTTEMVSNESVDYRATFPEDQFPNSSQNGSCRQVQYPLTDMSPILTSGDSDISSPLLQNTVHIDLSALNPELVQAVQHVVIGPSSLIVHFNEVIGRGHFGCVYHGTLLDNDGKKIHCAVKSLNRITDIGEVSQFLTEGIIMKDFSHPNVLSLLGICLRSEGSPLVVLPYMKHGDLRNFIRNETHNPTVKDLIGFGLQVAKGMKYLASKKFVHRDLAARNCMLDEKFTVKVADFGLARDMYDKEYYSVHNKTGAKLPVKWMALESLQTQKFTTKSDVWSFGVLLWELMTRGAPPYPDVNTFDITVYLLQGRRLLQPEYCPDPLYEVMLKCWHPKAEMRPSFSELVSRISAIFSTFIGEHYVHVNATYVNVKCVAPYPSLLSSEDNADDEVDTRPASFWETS

Description for HepG2: Cytotoxicity against human HepG2 cells after 72 hrs by MTT assay
Description for MCF7: Cytotoxicity against human MCF7 cells after 72 hrs by MTT assay

In the case of `Cc1ccc(-n2nc(C(=O)Nc3ccc(Oc4ncnc5sccc45)c(F)c3)c(C)cc2=O)cc1`, the IC50 in the test on A549, in the test with MCF7 and with HepG2 was over 40 µM in each case.
Consider `O=C(Nc1ccc(Oc2ncnc3ccsc23)c(F)c1)c1nn(-c2ccc(F)c(Cl)c2)ccc1=O`, for which the IC50 – broadly, the concentration needed to halve the response being measured – in the test with A549 turned out to be 9.65 µM; with MCF7, 6.63 µM; in the test on HepG2, 10.6 µM.
The matching figures for `CNC(=O)c1cc(Oc2ccc(NC(=O)c3nn(-c4ccc(Br)cc4F)c(=O)cc3C)cc2F)ccn1`: 7.93 µM, 9.36 µM and 2.83 µM.
The matching figures for `Cc1cc(=O)n(-c2ccc(F)c(F)c2)nc1C(=O)Nc1ccc(Oc2ncnc3sccc23)cc1`: 13.5 µM, 16.1 µM and 16.8 µM.
In the same order, the values of `CNC(=O)c1cc(Oc2ccc(NC(=O)c3nn(-c4ccccc4C(F)(F)F)c(=O)cc3C)cc2F)ccn1` are over 40 µM, 35.7 µM and over 40 µM.
Take `CNC(=O)c1cc(Oc2ccc(NC(=O)c3nn(-c4cccc(F)c4)c(=O)cc3C)cc2F)ccn1`: the IC50 with A549 was found to be 9.54 µM; in the test with MCF7, 6.41 µM; in the test on HepG2, 10.2 µM.
In the same order, the values of `Cc1cc(=O)n(-c2ccc(Br)cc2F)nc1C(=O)Nc1ccc(Oc2ncnc3sccc23)cc1` are 12.8 µM, 15.2 µM and 6.3 µM.
The matching figures for `Cc1cc(=O)n(-c2cccc(F)c2)nc1C(=O)Nc1ccc(Oc2ncnc3sccc23)cc1`: 16.4 µM, 27.2 µM and 18.5 µM.
In the same order, the values of `Cc1ccc(-n2nc(C(=O)Nc3ccc(Oc4ncnc5ccsc45)cc3)c(C)cc2=O)c(C)c1` are 16.4 µM, 11.9 µM and 17.9 µM.
As to `Cc1cc(=O)n(-c2ccc(F)c(F)c2)nc1C(=O)Nc1ccc(Oc2ncnc3sccc23)c(F)c1`, the IC50 was 15.7 µM in the test with A549, 20.6 µM in the test on MCF7 and over 40 µM with HepG2.
The matching figures for `Cc1ccc(-n2ccc(=O)c(C(=O)Nc3ccc(Oc4ncnc5ccsc45)c(F)c3)n2)cc1`: 11.6 µM, 23.2 µM and 24.2 µM.
In the same order, the values of `Cc1cc(=O)n(-c2ccc(F)c(F)c2)nc1C(=O)Nc1ccc(Oc2ncnc3ccsc23)cc1` are 8.18 µM, 5.55 µM and 9.23 µM.
The matching figures for `Cc1cc(=O)n(-c2ccc(Br)cc2F)nc1C(=O)Nc1ccc(Oc2ncnc3ccsc23)cc1`: 7.93 µM, 9.36 µM and 10.6 µM.
Regarding `Cc1ccc(-n2nc(C(=O)Nc3ccc(Oc4ncnc5ccsc45)c(F)c3)c(C)cc2=O)cc1`, the IC50 with A549 was found to be 5.89 µM; in the test with MCF7, 7.25 µM; in the test with HepG2 it was 17.2 µM.
On to `Cc1ccc(-n2nc(C(=O)Nc3ccc(Oc4ncnc5ccsc45)cc3)c(C)cc2=O)cc1`, for which the IC50 with A549 came to 11.5 µM; in the test with MCF7, 23.8 µM; in the test on HepG2, 25 µM.
`Cc1ccc(-n2nc(C(=O)Nc3ccc(Oc4ncnc5sccc45)cc3)c(C)cc2=O)cc1`: the IC50 in the test on A549, in the test with MCF7 and with HepG2 was over 40 µM in each case.
With `Cc1cc(=O)n(-c2ccccc2OC(F)(F)F)nc1C(=O)Nc1ccc(Oc2ncnc3ccsc23)c(F)c1`, the figures for the half-maximal inhibitory concentration (IC50) in the test on A549, in the test with MCF7 and in the test on HepG2 were 5.72 µM, 11.5 µM and 15.7 µM, respectively.
Regarding `Cc1cc(=O)n(-c2cccc(F)c2)nc1C(=O)Nc1ccc(Oc2ncnc3ccsc23)cc1`, the figures for the IC50 in the test with A549, with MCF7 and with HepG2 were 9.54 µM, 6.41 µM and 10.2 µM, respectively.
Consider `Cc1cc(=O)n(-c2ccccc2C(F)(F)F)nc1C(=O)Nc1ccc(Oc2ncnc3sccc23)cc1`, for which the IC50 with A549 was 19.9 µM; with MCF7, over 40 µM; in the test with HepG2 it was over 40 µM.
For `O=C(Nc1ccc(Oc2ncnc3ccsc23)c(F)c1)c1nn(-c2ccc(Br)cc2)ccc1=O`, the IC50 in the test with A549 is 7.84 µM; in the test on MCF7, 9.62 µM; with HepG2, 10.7 µM.
The matching figures for `Cc1cc(=O)n(-c2ccc(F)cc2)nc1C(=O)Nc1ccc(Oc2ncnc3sccc23)c(F)c1`: 2.62 µM, 12.3 µM and 12.5 µM.
In the same order, the values of `CNC(=O)c1cc(Oc2ccc(NC(=O)c3nn(-c4ccccc4F)c(=O)cc3C)cc2F)ccn1` are over 40 µM, over 40 µM and over 40 µM.
In the same order, the values of `CNC(=O)c1cc(Oc2ccc(NC(=O)c3nn(-c4ccc(C)cc4)c(=O)cc3C)cc2F)ccn1` are 11.5 µM, 8.38 µM and 10.6 µM.
For the compound `Cc1cc(=O)n(-c2ccc(Br)cc2F)nc1C(=O)Nc1ccc(Oc2ncnc3ccsc23)c(F)c1`, the IC50 worked out at 2.98 µM in the test on A549, 0.032 µM in test [1], 1.55 µM with MCF7 and 3.35 µM in the test with HepG2.
`Cc1cc(=O)n(-c2ccccc2C(F)(F)F)nc1C(=O)Nc1ccc(Oc2ncnc3ccsc23)c(F)c1`: the IC50 in the test on A549 turned out to be 4.68 µM; in the test on MCF7, 6.02 µM; with HepG2, 9.38 µM.
The matching figures for `Cc1cc(=O)n(-c2cccc(F)c2)nc1C(=O)Nc1ccc(Oc2ncnc3sccc23)c(F)c1`: 19.5 µM, 17.3 µM and 24.4 µM.
Take `Cc1cc(=O)n(-c2ccc(F)cc2)nc1C(=O)Nc1ccc(Oc2ncnc3ccsc23)cc1`: the IC50 was determined as 2.36 µM in the test on A549, 0.048 µM in test [1], 4.4 µM with MCF7 and 2.11 µM in the test on HepG2.
As to `Cc1cc(=O)n(-c2ccc(F)cc2)nc1C(=O)Nc1ccc(Oc2ncnc3sccc23)cc1`, the IC50 in the test on A549 worked out at 7.05 µM; in the test on MCF7, 21 µM; with HepG2 it was 6.46 µM.
In the same order, the values of `Cc1cc(=O)n(-c2ccc(F)c(F)c2)nc1C(=O)Nc1ccc(Oc2ncnc3ccsc23)c(F)c1` are 4.59 µM, 6.9 µM and 6.93 µM.
Take `Cc1cc(=O)n(-c2ccccc2C(F)(F)F)nc1C(=O)Nc1ccc(Oc2ncnc3sccc23)c(F)c1`: the IC50 in the test with A549 amounted to 16.3 µM; in the test with MCF7, 13.8 µM; with HepG2, 14.7 µM.
With `Cc1cc(=O)n(-c2ccccc2OC(F)(F)F)nc1C(=O)Nc1ccc(Oc2ncnc3sccc23)cc1`, the IC50 was found to be 15.5 µM in the test on A549, 11 µM in the test with MCF7 and 14.4 µM with HepG2.
The matching figures for `CNC(=O)c1cc(Oc2ccc(NC(=O)c3nn(-c4ccccc4OC(F)(F)F)c(=O)cc3C)cc2F)ccn1`: over 40 µM, over 40 µM and over 40 µM.
Regarding `Cc1cc(=O)n(-c2ccccc2OC(F)(F)F)nc1C(=O)Nc1ccc(Oc2ncnc3ccsc23)cc1`, the values for the IC50 in the test on A549, in the test on MCF7 and in the test with HepG2 were 10.1 µM, 23.8 µM and 25 µM, respectively.
In the same order, the values of `Cc1cc(=O)n(-c2cccc(F)c2)nc1C(=O)Nc1ccc(Oc2ncnc3ccsc23)c(F)c1` are 5.22 µM, 9.05 µM and 7.81 µM.
With `Cc1cc(=O)n(-c2ccc(Br)cc2F)nc1C(=O)Nc1ccc(Oc2ncnc3sccc23)c(F)c1`, the IC50 in the test with A549 turned out to be 11.5 µM; in the test on MCF7, 13.2 µM; with HepG2 it was 13.8 µM.
On to `O=C(Nc1ccc(Oc2ncnc3ccsc23)c(F)c1)c1nn(-c2ccc(F)cc2)ccc1=O`, for which the IC50 in the test with A549 worked out at 8.23 µM; in the test with MCF7 it was 5.72 µM; in the test with HepG2, 9.16 µM.
The matching figures for `O=C(Nc1ccc(Oc2ncnc3ccsc23)c(F)c1)c1nn(-c2ccccc2)ccc1=O`: 19.7 µM, 12.4 µM and 13.5 µM.
The matching figures for `Cc1cc(=O)n(-c2ccccc2C(F)(F)F)nc1C(=O)Nc1ccc(Oc2ncnc3ccsc23)cc1`: 8.85 µM, 5.55 µM and 9.23 µM.
In the same order, the values of `Cc1cc(=O)n(-c2ccccc2OC(F)(F)F)nc1C(=O)Nc1ccc(Oc2ncnc3sccc23)c(F)c1` are over 40 µM, over 40 µM and over 40 µM.
